pIC50: −log10 of the molar value. Counter-ions that a name gives are not always drawn.
Key:
[1] = system: human hepatic cancer cells (HuH-7); assay: Antiproliferative effect on cancer cells (in vitro), sulforhodamine B method; format: cell-based; settings: 120 h, HuH-7 cells, 5 days incubation with test compound, SRB staining, read-out: IC50 (50% inhibitory concentration), growth inhibition of HuH-7 cells
Description: Antiproliferative Effect on Cancer Cells (In Vitro)
Growth inhibition of human hepatic cancer cells (HuH-7) was determined by the sulforhodamine B method based on the method of Skehan P. et al. (J Natl Cancer Inst. 1990 Jul. 4; 82(13): 1107-12). In the study, HuH-7 cells were seeded on DMEM medium containing 10% fetal bovine serum in a 96-well microplate. After 24-hour incubation at 37° C. in the presence of 5% carbon dioxide, the test compound was added and the cells were incubated for another 5 days. After incubation, a trichloroacetic acid solution was added to yield the final concentration of 10% and the cells were left to stand at 4° C. for 1 hour to fix. Then, the cells were washed with water to remove the medium and trichloroacetic acid and dried in the air. The dried cells were stored at 4° C. until they were stained with sulforhodamine B. To each well, 1% acetic acid solution containing 0.4% sulforhodamine B was added and left to stand for 20 to 30 minutes at room temperature. After discarding the supernatant, each well was washed with 1% acetic acid solution, and 10 mM Tris(tris-(hydroxymethyl)aminomethane) solution was added while stirring to elute the dye taken into the cells. Then, the optical density was determined at the measurement wavelength of 492 nm and the reference wavelength of 690 nm, and the difference was calculated. The cell growth activity in each well was defined as the value determined by subtracting the OD in the control well not containing cells (the difference in absorbance between 492 nm and 690 nm) from that in the test well.
The 50% inhibitory concentration (IC50 (nM)) of the test compound was determined by comparing the cell growth activity in the well containing the test compound with that of the control not containing the test compound.

[2] = Metabolic stability test in hepatic microsome; format: in vitro ADME; settings: liver microsomes, NADH/NADPH, 37° C., 0, 10 and 20 min, read-out: CLint (intrinsic clearance)
Description: Metabolic Stability Test in Hepatic Microsome
In this study, 222.5 μL of 0.22 mg/mL liver microsome was distributed to each tube, and 2.5 μL of 100 μM test compound was added thereto. Then, 22.5 μL of this mixture was divided to 500 μL of acetonitrile spiked IS as 0 min sample, and the residue was pre-incubated at 37° C. for 5 min. Reaction was started by the addition of 22.5 μL of 10 mM NADH/NADPH, and after 10 and 20 min, 25 μL of the reaction mixture was divided to 500 μL of acetonitrile spiked IS. The samples were centrifuged (5700 rpm, 4° C., 10 min), and the supernatants were analyzed by LC/MS/MS. The slope of the linear regression from log percentage remaining versus incubation time relationships (−ke) was calculated, and the intrinsic clearance (CLint) was calculated using the following equation.

[3] = Stability test of dissolved compounds under heat- and acid-stress condition; format: physicochemical; settings: dissolved in water/acetonitrile/trifluoroacetic acid (500:500:1), stored at 70° C., Day 0, Day 1 and Day 3
Description: In order to estimate the stability of compounds without conducting a long-term stability test, the stability of the dissolved compounds was evaluated under a heat- and acid-stress condition.
About 0.005 g of test compound was dissolved in 50 mL of a mobile phase, and this solution was used as the sample solution. The solutions were put into a brown glass vial and stored at 70° C. during the test period. The test with 20 μL of each of the sample solution was conducted at the following sampling points as directed under the Liquid Chromatography according to the following conditions. The residual ratio of the test compound's peak area (%) in the total peak area detected in the solution was determined by the automatic integration method. Operating conditions were as follows. […] The residual ratio of the test compound's peak area (%) is calculated as follows. The peak area of the test compound/The total peak area detected in the solution×100.

With `CNc1ccc(Oc2ccc(NC(=O)c3ccc(F)c(F)c3F)cn2)c(C)c1.Cl` [Example 25, 2,3,4-Trifluoro-N-{6-[2-methyl-4-(methylamino)phenoxy]pyridin-3-yl}benzamide hydrochloride] the melting point was 222.9 to 225.4 °C (dec.), the pIC50 [1] was 6.31 and the microsomal CLint at 1 µM [2] was < 200 µL/min/mg.

In the case of `CNc1ccc(Oc2ccc(NC(=O)c3ccc(Oc4ccccc4)cc3)cn2)c(C)c1` [Example 6, N-{6-[2-Methyl-4-(methylamino)phenoxy]pyridin-3-yl}-4-phenoxybenzamide], the pIC50 [1] was 7.11 and the microsomal CLint at 1 µM [2] was < 200 µL/min/mg.

With `CNc1ccc(Oc2ccc(NC(=O)c3ccc(C(F)(F)F)cc3F)cn2)c(C)c1` [Example 9, 2-Fluoro-N-{6-[2-methyl-4-(methylamino)phenoxy]pyridin-3-yl}-4-(trifluoromethyl)benzamide] the pIC50 [1] was 7.15 and the microsomal CLint at 1 µM [2] was < 200 µL/min/mg.

A pIC50 [1] of 6.87 was found for `CNc1ccc(Oc2ccc(NC(=O)c3ccc(Oc4ccccc4)cc3)cn2)c(F)c1` [Example 21, N-{6-[2-fluoro-4-(methylamino)phenoxy]pyridin-3-yl}-4-phenoxybenzamide hydrochloride] in this work.

For `CNc1ccc(Oc2ccc(NC(=O)c3ccc(-c4ccccc4)cc3)cn2)c(C)c1` [Example 7, N-{6-[2-Methyl-4-(methylamino)phenoxy]pyridin-3-yl}biphenyl-4-carboxamide], the pIC50 [1] was 7.11 and the microsomal CLint at 1 µM [2] was < 200 µL/min/mg.

In the case of `CNc1ccc(Oc2ccc(NC(=O)c3ccc(C(F)(F)F)cc3)cn2)cc1.Cl` [Example 30, N-{6-[4-(Methylamino)phenoxy]pyridin-3-yl}-4-(trifluoromethyl)benzamide hydrochloride], the pIC50 [1] was 6.56, the microsomal CLint at 1 µM [2] was < 200 µL/min/mg and the “storage stability (residual ratio of the test compound's peak area)” value [3] was “superior storage stability”.

A melting point of 207.1 to 209.8 °C was found for `CNc1ccc(Oc2ccc(NC(=O)c3ccc(F)c(F)c3F)cn2)c(OC)c1.Cl` in this work.

For `CNc1ccc(Oc2ccc(NC(=O)c3ccc(C(F)(F)F)cc3)cn2)c(C)c1` [Example 24, N-{6-[2-methyl-4-(methylamino)phenoxy]pyridin-3-yl}-4-(trifluoromethyl)benzamide hydrochloride], the pIC50 [1] was 7.14 and the microsomal CLint at 1 µM [2] was < 200 µL/min/mg.

With `CNc1ccc(Oc2ccc(NC(=O)c3ccc(-c4ccccc4)cc3)cn2)c(F)c1` [Example 2, N-{6-[2-Fluoro-4-(methylamino)phenoxy]pyridin-3-yl}biphenyl-4-carboxamide] the melting point was 190 to 190.5 °C (dec.), the pIC50 [1] was 6.97 and the microsomal CLint at 1 µM [2] was < 200 µL/min/mg.

In the case of `CNc1ccc(Oc2ccc(NC(=O)c3ccc(C(F)(F)F)cc3F)cn2)c(OC)c1.Cl` [Example 28, 2-Fluoro-N-{6-[2-methoxy-4-(methylamino)phenoxy]pyridin-3-yl}-4-(trifluoromethyl)benzamide hydrochloride], the melting point was 197 to 198.1 °C, the pIC50 [1] was 6.53 and the microsomal CLint at 1 µM [2] was < 200 µL/min/mg.

A pIC50 [1] of 6.50 was found for `CNc1ccc(Oc2ccc(NC(=O)c3ccc(Oc4ccccc4)cc3)cn2)cc1` [Example 10, N-{6-[4-(Methylamino)phenoxy]pyridin-3-yl}-4-phenoxybenzamide] in this work.

With `CNc1ccc(Oc2ccc(NC(=O)c3ccc(Oc4ccccc4)cc3)cn2)c(OC)c1.Cl` [Example 26, N-{6-[2-Methoxy-4-(methylamino)phenoxy]pyridin-3-yl}-4-phenoxybenzamide hydrochloride] the melting point was 202.2 to 202.3 °C, the pIC50 [1] was 6.56 and the microsomal CLint at 1 µM [2] was < 200 µL/min/mg.

With `CNc1ccc(Oc2ccc(NC(=O)c3ccc(C(F)(F)F)cc3)cn2)c(OC)c1.Cl` [Example 27, N-{6-[2-Methoxy-4-(methylamino)phenoxy]pyridin-3-yl}-4-(trifluoromethyl)benzamide hydrochloride] the melting point was 217.6 to 218.2 °C, the pIC50 [1] was 6.52 and the microsomal CLint at 1 µM [2] was < 200 µL/min/mg.

A pIC50 [1] of 6.51 was found for `CNc1ccc(Oc2ccc(NC(=O)c3ccc(-c4ccccc4)cc3)cn2)cc1` [Example 11, N-{6-[4-(Methylamino)phenoxy]pyridin-3-yl}biphenyl-4-carboxamide] in this work.

With `CNc1ccc(Oc2ccc(NC(=O)c3ccc(C(F)(F)F)cc3F)cn2)c(F)c1` [Example 22, 2-Fluoro-N-{6-[2-fluoro-4-(methylamino)phenoxy]pyridin-3-yl}-4-(trifluoromethyl)benzamide hydrochloride] the pIC50 [1] was 6.79 and the microsomal CLint at 1 µM [2] was < 200 µL/min/mg.

For `CNc1ccc(Oc2ccc(NC(=O)c3ccc(C(F)(F)F)cc3)cn2)c(F)c1` [Example 3, N-{6-[2-Fluoro-4-(methylamino)phenoxy]pyridin-3-yl}-4-(trifluoromethyl)benzamide], the pIC50 [1] was 6.81 and the microsomal CLint at 1 µM [2] was < 200 µL/min/mg.

For `CNc1ccc(Oc2ccc(NC(=O)c3ccc(C(F)(F)F)cc3F)cn2)cc1` [Example 31, 2-Fluoro-N-{6-[4-(methylamino)phenoxy]pyridin-3-yl}-4-(trifluoromethyl)benzamide hydrochloride], the pIC50 [1] was 6.49 and the microsomal CLint at 1 µM [2] was < 200 µL/min/mg.

A pIC50 [1] of 6.12 was found for `CNc1ccc(Oc2ccc(NC(=O)c3ccc(F)c(F)c3F)cn2)c(F)c1` [Example 23, 2,3,4-Trifluoro-N-{6-[2-fluoro-4-(methylamino)phenoxy]pyridin-3-yl}benzamide hydrochloride] in this work.

With `CNc1ccc(Oc2ccc(NC(=O)c3ccc(-c4ccccc4)cc3)cn2)c(OC)c1` [Example 14, N-{6-[2-Methoxy-4-(methylamino)phenoxy]pyridin-3-yl}biphenyl-4-carboxamide] the melting point was 161.4 to 161.8 °C, the pIC50 [1] was 6.61 and the microsomal CLint at 1 µM [2] was < 200 µL/min/mg.
